# Read-outs that look alike come from different tables or passages of the source.
# Assays:
# Experiment in all cases: Growth inhibitory activity of compounds on BaF3 cell lines stably transfected with kinase (MTS, 48 h)
# Format in all cases: cell-based
# [1] = target: T1, various mutants of kinase EGFR (BaF3 cell lines stably transfected with kinase) (Homo sapiens, UniProt P00533, T790M, form not given)
# T1 construct: other: BaF3 cells stably transfected with EGFR Δ19Del/T790M; MTS, 48 h; other: BaF3 cell line stably transfected with EGFR Δ19Del/T790M; MTS, 48
# Procedure, shortened: (§1)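 Growth is measured by MTS reduction (OD 490 nm) after 48 h compound exposure at up to 10 µM in 8 steps of 1/3. Inhibition is calculated against a 0.1% DMSO control and cell-free blank, and IC50 is derived from it.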
# [2] = target: T2, various mutants of kinase EGFR (BaF3 cell lines stably transfected with kinase) (Homo sapiens, UniProt P00533, C797S/L858R/T790M)
# T2 construct: expressed in transfected cells; host or cells: BaF3
# Procedure, shortened: as §1
# [3] = target: T3, various mutants of kinase EGFR (BaF3 cell lines stably transfected with kinase) (Homo sapiens, UniProt P00533)
# T3 construct: other: BaF3 cells stably transfected with EGFR Δ19Del; MTS, 48 h; other: BaF3 cell line stably transfected with EGFR Δ19Del
# Procedure, shortened: as §1
# [4] = target: T4, various mutants of kinase EGFR (BaF3 cell lines stably transfected with kinase) (Homo sapiens, UniProt P00533, T790M/C797S, form not given)
# T4 construct: other: BaF3 cells stably transfected with EGFR Δ19Del/T790M/C797S; MTS, 48; other: BaF3 cell line stably transfected with EGFR Δ19Del/T790M/C7
# Procedure, shortened: as §1
# [5] = target: T5, various mutants of kinase EGFR (BaF3 cell lines stably transfected with kinase) (Homo sapiens, UniProt P00533, L858R/T790M)
# T5 construct: expressed in transfected cells; host or cells: BaF3
# Procedure, shortened: as §1
# [6] = target: T6, various mutants of kinase EGFR (BaF3 cell lines stably transfected with kinase) (Homo sapiens, UniProt P00533, L858R)
# T6 construct: expressed in transfected cells; host or cells: BaF3
# Procedure, shortened: as §1
# [7] = BaF3 cells stably transfected with EGFR Δ19Del/T790M, read-out: IC50, growth inhibition, Δ19Del/T790M
# [8] = BaF3 cells stably transfected with EGFR L858R/T790M/C797S, read-out: IC50, growth inhibition, L858R/T790M/C797S
# [9] = BaF3 cells stably transfected with EGFR Δ19Del, read-out: IC50, growth inhibition, Δ19Del
# [10] = BaF3 cells stably transfected with EGFR Δ19Del/T790M/C797S, read-out: IC50, growth inhibition, Δ19Del/T790M/C797S
# [11] = BaF3 cells stably transfected with EGFR L858R/T790M, read-out: IC50, growth inhibition, L858R/T790M
# [12] = BaF3 cells stably transfected with EGFR L858R, read-out: IC50, growth inhibition, L858R
# [13] = BaF3 cell line stably transfected with EGFR Δ19Del/T790M, read-out: Δ19Del/ T790M growth inhibitory activity IC50
# [14] = BaF3 cell line stably transfected with EGFR L858R/T790M/C797S, read-out: L858R/T790M/ C797S growth inhibitory activity IC50
# [15] = BaF3 cell line stably transfected with EGFR Δ19Del, read-out: Δ19Del growth inhibitory activity IC50
# [16] = BaF3 cell line stably transfected with EGFR Δ19Del/T790M/C797S, read-out: Δ19Del/T790M/ C797S growth inhibitory activity IC50
# [17] = BaF3 cell line stably transfected with EGFR L858R/T790M, read-out: L858R/ T790M growth inhibitory activity IC50
# [18] = BaF3 cell line stably transfected with EGFR L858R, read-out: L858R growth inhibitory activity IC50
# T5 sequence (P00533 25-1210 T790M/L858R): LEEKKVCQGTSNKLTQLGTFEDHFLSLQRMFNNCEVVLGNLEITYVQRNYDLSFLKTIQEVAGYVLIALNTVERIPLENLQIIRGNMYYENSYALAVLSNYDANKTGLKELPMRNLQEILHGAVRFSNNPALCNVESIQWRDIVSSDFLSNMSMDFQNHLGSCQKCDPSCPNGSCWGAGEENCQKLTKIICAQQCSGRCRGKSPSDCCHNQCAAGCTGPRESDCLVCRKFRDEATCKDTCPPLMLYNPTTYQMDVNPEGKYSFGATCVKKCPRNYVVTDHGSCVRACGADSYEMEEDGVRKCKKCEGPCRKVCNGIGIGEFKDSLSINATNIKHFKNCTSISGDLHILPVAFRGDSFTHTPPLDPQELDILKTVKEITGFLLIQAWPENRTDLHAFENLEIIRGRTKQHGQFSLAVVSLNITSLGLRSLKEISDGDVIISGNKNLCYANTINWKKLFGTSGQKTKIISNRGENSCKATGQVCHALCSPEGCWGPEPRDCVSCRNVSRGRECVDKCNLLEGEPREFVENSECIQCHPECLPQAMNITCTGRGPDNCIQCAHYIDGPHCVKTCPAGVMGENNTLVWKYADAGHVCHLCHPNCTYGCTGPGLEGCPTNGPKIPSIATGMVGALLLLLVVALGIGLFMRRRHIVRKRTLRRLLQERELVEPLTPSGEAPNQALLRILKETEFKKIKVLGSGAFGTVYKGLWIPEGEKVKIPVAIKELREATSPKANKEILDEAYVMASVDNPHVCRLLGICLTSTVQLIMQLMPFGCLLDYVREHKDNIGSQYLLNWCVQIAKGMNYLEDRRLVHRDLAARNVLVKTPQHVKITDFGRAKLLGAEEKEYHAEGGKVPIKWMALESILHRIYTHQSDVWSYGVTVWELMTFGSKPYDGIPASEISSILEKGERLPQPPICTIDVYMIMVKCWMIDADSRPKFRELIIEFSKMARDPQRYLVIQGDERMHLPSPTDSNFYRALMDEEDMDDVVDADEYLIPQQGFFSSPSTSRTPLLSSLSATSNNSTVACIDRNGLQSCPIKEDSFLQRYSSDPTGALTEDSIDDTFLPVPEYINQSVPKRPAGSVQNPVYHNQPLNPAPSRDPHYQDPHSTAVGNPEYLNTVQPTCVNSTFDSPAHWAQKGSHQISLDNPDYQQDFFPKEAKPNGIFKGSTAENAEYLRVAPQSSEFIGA
# T1 sequence (P00533 with tags, fused parts or gaps DEL746-750/T790M, form open): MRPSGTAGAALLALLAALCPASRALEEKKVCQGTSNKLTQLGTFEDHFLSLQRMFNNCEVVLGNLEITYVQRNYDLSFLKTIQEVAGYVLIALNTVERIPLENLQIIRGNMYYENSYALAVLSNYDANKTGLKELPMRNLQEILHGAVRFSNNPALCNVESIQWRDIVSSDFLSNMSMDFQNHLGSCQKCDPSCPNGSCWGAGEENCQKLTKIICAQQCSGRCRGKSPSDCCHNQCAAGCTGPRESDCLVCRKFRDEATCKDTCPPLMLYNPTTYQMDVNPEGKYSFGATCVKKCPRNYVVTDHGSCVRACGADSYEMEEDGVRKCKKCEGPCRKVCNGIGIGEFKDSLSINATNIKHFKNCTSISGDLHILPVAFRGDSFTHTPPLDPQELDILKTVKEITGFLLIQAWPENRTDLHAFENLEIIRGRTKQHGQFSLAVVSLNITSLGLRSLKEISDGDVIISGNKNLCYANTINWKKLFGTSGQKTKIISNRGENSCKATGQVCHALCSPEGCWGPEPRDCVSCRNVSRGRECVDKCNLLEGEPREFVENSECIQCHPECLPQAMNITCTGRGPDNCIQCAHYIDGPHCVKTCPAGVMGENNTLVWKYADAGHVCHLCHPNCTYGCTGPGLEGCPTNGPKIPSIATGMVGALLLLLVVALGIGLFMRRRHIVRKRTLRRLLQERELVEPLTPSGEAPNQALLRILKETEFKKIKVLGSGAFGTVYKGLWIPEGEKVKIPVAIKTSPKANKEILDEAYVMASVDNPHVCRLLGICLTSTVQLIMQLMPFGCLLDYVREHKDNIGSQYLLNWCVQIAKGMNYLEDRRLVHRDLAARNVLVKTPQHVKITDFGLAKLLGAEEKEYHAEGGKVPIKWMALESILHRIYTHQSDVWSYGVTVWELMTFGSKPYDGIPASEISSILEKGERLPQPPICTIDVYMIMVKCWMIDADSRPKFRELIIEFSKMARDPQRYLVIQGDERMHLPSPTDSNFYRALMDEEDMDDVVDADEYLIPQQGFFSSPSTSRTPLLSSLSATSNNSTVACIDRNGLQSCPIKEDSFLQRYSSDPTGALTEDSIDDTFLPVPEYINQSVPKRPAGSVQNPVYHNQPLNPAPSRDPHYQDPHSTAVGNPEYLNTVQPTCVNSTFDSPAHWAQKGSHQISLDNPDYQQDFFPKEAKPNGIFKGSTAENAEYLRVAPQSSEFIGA
# T6 sequence (P00533 25-1210 L858R): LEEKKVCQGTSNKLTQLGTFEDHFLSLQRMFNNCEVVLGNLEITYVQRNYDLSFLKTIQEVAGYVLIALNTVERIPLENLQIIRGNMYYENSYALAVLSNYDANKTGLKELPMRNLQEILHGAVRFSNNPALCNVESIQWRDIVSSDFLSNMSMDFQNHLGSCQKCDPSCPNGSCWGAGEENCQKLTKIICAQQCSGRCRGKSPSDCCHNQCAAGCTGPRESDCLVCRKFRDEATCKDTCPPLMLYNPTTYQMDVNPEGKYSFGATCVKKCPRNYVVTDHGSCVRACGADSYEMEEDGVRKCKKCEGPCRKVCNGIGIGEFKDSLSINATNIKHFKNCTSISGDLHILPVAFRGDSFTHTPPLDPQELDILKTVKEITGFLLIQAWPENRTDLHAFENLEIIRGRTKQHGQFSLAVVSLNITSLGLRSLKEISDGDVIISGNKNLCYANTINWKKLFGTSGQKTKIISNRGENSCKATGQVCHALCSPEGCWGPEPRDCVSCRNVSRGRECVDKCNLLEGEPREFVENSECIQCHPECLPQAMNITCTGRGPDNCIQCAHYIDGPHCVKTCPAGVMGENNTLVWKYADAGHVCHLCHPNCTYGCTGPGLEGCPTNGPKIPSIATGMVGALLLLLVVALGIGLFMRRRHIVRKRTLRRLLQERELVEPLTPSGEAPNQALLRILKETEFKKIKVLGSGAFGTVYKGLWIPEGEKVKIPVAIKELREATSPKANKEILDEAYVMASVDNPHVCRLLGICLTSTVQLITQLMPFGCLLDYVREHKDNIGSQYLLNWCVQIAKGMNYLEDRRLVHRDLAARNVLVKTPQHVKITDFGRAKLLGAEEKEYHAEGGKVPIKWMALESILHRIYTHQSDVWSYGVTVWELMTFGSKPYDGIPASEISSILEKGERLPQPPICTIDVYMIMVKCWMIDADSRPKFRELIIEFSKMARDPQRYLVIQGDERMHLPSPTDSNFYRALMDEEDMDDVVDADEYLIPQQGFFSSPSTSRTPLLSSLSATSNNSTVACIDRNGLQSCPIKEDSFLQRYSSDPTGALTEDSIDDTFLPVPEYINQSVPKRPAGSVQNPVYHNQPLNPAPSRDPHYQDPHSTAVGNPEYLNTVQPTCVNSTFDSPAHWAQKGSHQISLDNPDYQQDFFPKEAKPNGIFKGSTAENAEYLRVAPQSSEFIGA
# T3 sequence (P00533 with tags, fused parts or gaps DEL746-750): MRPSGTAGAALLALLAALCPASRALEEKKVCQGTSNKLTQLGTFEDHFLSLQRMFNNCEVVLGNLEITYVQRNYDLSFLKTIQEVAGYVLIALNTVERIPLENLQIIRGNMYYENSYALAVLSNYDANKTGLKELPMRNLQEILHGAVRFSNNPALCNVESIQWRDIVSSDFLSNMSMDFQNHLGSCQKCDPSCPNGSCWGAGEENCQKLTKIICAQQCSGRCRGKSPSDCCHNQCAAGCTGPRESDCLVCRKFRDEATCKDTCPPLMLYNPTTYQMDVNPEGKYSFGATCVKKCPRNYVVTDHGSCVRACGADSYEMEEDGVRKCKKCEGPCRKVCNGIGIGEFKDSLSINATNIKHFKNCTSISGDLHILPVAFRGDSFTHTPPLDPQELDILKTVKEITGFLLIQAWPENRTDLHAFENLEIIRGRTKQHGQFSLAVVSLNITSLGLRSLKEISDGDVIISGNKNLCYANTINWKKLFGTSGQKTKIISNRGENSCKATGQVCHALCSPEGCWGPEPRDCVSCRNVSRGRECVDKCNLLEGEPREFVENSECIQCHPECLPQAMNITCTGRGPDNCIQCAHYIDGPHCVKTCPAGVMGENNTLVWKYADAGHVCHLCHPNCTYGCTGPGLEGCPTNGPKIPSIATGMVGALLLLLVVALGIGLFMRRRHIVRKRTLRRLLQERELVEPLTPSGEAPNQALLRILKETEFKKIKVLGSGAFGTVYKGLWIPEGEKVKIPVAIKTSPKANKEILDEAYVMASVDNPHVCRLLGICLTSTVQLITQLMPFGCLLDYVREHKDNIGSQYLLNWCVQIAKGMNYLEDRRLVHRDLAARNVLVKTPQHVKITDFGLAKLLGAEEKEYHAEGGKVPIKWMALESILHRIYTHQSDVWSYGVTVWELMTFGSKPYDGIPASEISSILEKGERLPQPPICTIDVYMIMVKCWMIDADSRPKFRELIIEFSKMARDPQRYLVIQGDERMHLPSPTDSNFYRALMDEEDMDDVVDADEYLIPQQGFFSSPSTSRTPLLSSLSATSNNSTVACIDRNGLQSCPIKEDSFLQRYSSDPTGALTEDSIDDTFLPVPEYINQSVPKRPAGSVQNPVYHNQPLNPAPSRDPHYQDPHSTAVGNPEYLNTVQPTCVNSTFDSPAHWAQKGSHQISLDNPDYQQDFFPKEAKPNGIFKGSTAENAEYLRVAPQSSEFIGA
"IC50 [1, 7]","IC50 [2, 8]","IC50 [3, 9]","IC50 [4, 10]","IC50 [5, 11]","IC50 [6, 12]","IC50 [1, 13]","IC50 [2, 14]","IC50 [3, 15]","IC50 [4, 16]","IC50 [5, 17]","IC50 [6, 18]",SMILES
50 to 500 nM,50 to 500 nM,50 to 500 nM,≤ 50 nM,50 to 500 nM,50 to 500 nM,–,–,–,–,–,–,COc1cc(N2CCC(N(C)C)C2)c(C)cc1Nc1ncc(C2CC2)c(Nc2ccc3nccnc3c2N(C)S(C)(=O)=O)n1 (stereo not drawn) [Compound I-274]
–,–,–,–,–,–,≤ 50 nM,≤ 50 nM,≤ 50 nM,≤ 50 nM,≤ 50 nM,≤ 50 nM,CCc1cc(Nc2ncc(CC)c(Nc3ccc4nccnc4c3N(C)S(C)(=O)=O)n2)c(OC)cc1N1CCC(N(C)C)C1 (stereo not drawn) [Compound I-324]
500 to 2500 nM,50 to 500 nM,500 to 2500 nM,50 to 500 nM,500 to 2500 nM,500 to 2500 nM,–,–,–,–,–,–,COc1cc(N2CCC(N(C)C)CC2)c(C)cc1Nc1ncc(Cl)c(Nc2ccc3nccnc3c2N(C)S(=O)(=O)C(F)(F)F)n1 [Compound I-265]
500 to 2500 nM,500 to 2500 nM,500 to 2500 nM,500 to 2500 nM,500 to 2500 nM,500 to 2500 nM,–,–,–,–,–,–,COc1nc(N2CCC(N3CCN(C)CC3)CC2)c(C)cc1Nc1ncc(Cl)c(Nc2ccc3nccnc3c2N(C2CC2)S(C)(=O)=O)n1 [Compound I-240]
–,–,–,–,–,–,≤ 50 nM,≤ 50 nM,≤ 50 nM,≤ 50 nM,≤ 50 nM,≤ 50 nM,CCc1cc(Nc2ncc(CC)c(Nc3ccc4nccnc4c3N(C)S(C)(=O)=O)n2)ccc1N1CCC(N2CCN(C)CC2)CC1 [Compound I-319]
≤ 50 nM,≤ 50 nM,50 to 500 nM,≤ 50 nM,≤ 50 nM,50 to 500 nM,–,–,–,–,–,–,COc1cc(N2CCN(C)CC2)c(C)cc1Nc1ncc(C(F)(F)F)c(Nc2ccc3nccnc3c2N(C)S(C)(=O)=O)n1 [Compound I-207]
–,–,–,–,–,–,≤ 50 nM,≤ 50 nM,50 to 500 nM,≤ 50 nM,≤ 50 nM,≤ 50 nM,CCc1cc(Nc2ncc(Br)c(Nc3ccc4nccnc4c3NS(C)(=O)=O)n2)c(OC)nc1N1CCC(N2CCN(C)CC2)CC1 [Compound I-404]
500 to 2500 nM,50 to 500 nM,500 to 2500 nM,50 to 500 nM,500 to 2500 nM,500 to 2500 nM,–,–,–,–,–,–,COc1cc(N2CCC(N3CCN(C)CC3)CC2)c(CC2CC2)cc1Nc1ncc(Br)c(Nc2ccc3nccnc3c2N(C)S(=O)(=O)C(F)(F)F)n1 [Compound I-259]
–,–,–,–,–,–,500 to 2500 nM,50 to 500 nM,500 to 2500 nM,50 to 500 nM,500 to 2500 nM,500 to 2500 nM,COc1ccc(N2CCC(O)CC2)cc1Nc1ncc(F)c(Nc2ccc3nccnc3c2N(C)S(C)(=O)=O)n1 [Compound I-367]
50 to 500 nM,50 to 500 nM,50 to 500 nM,≤ 50 nM,50 to 500 nM,50 to 500 nM,–,–,–,–,–,–,COc1nc(N2CCC(N3CCN(C)CC3)CC2)ccc1Nc1ncc(C(F)(F)F)c(Nc2ccc3nccnc3c2N(C)S(C)(=O)=O)n1 [Compound I-197]
50 to 500 nM,50 to 500 nM,500 to 2500 nM,50 to 500 nM,50 to 500 nM,500 to 2500 nM,–,–,–,–,–,–,C=Cc1cc(Nc2ncc([N+](=O)[O-])c(Nc3ccc4nccnc4c3N(C)S(C)(=O)=O)n2)c(OC(F)(F)F)cc1N1CCC(N2CCN(C)CC2)CC1 [Compound I-290]
≤ 50 nM,≤ 50 nM,≤ 50 nM,≤ 50 nM,≤ 50 nM,≤ 50 nM,–,–,–,–,–,–,COc1cc(N2CCC(N3CCN(C)CC3)CC2)c(C)cc1Nc1ncc(C)c(Nc2ccc3nccnc3c2N(C)S(C)(=O)=O)n1 [Compound I-276]

# The remaining lines, values behind:
SMILES,"IC50 [1, 7]","IC50 [2, 8]","IC50 [3, 9]","IC50 [4, 10]","IC50 [5, 11]","IC50 [6, 12]","IC50 [1, 13]","IC50 [2, 14]","IC50 [3, 15]","IC50 [4, 16]","IC50 [5, 17]","IC50 [6, 18]"
CCc1cc(Nc2ncc([N+](=O)[O-])c(Nc3ccc4nccnc4c3N(C)S(C)(=O)=O)n2)c(OC)cc1N1CCC(N2CCN(C)CC2)CC1 [Compound I-32],≤ 50 nM,≤ 50 nM,≤ 50 nM,≤ 50 nM,≤ 50 nM,≤ 50 nM,–,–,–,–,–,–
CN1CCN(c2ccc(Nc3ncc(Br)c(Nc4ccc5nccnc5c4N(C)S(C)(=O)=O)n3)cc2)CC1 [Compound I-40],≤ 50 nM,≤ 50 nM,≤ 50 nM,≤ 50 nM,≤ 50 nM,≤ 50 nM,–,–,–,–,–,–
CCc1cc(Nc2ncc(Cl)c(Nc3ccc4nccnc4c3N(C)S(C)(=O)=O)n2)c(OC)cc1N1CCN(C)CC1 [Compound I-172],≤ 50 nM,≤ 50 nM,≤ 50 nM,≤ 50 nM,≤ 50 nM,≤ 50 nM,–,–,–,–,–,–
CCc1cc(Nc2ncc(Cl)c(Nc3ccc4nccnc4c3N(CC)S(C)(=O)=O)n2)c(OC)cc1N1CCC(N(C)C)CC1 [Compound I-112],≤ 50 nM,≤ 50 nM,≤ 50 nM,≤ 50 nM,≤ 50 nM,≤ 50 nM,–,–,–,–,–,–
COc1cc(N2CCC(N3CCN(C)CC3)CC2)c(C)cc1Nc1ncc(Br)c(Nc2ccc3nccnc3c2N(C)S(=O)(=O)C(C)C)n1 [Compound I-134],≤ 50 nM,≤ 50 nM,50 to 500 nM,≤ 50 nM,≤ 50 nM,50 to 500 nM,–,–,–,–,–,–
CCc1cc(Nc2ncc(Cl)c(Nc3ccc4nccnc4c3N(C)S(C)(=O)=O)n2)c(OC)nc1N1CCC(N2CCN(C)CC2)CC1 [Compound I-21],≤ 50 nM,≤ 50 nM,50 to 500 nM,≤ 50 nM,≤ 50 nM,≤ 50 nM,–,–,–,–,–,–
COc1cc(N2CCC(N3CCN(C)CC3)CC2)c(CC2CC2)cc1Nc1ncc(Cl)c(Nc2ccc3nccnc3c2N(C)S(C)(=O)=O)n1 [Compound I-167],≤ 50 nM,≤ 50 nM,50 to 500 nM,≤ 50 nM,≤ 50 nM,≤ 50 nM,–,–,–,–,–,–
COc1ccc(N2CCC(O)CC2)cc1Nc1ncc(Br)c(Nc2ccc3nccnc3c2N(C)S(C)(=O)=O)n1 [Compound I-77],≤ 50 nM,≤ 50 nM,50 to 500 nM,≤ 50 nM,≤ 50 nM,50 to 500 nM,–,–,–,–,–,–
CN(c1c(Nc2nc(NC3CC3)ncc2Br)ccc2nccnc12)S(C)(=O)=O [Compound I-73],50 to 500 nM,500 to 2500 nM,500 to 2500 nM,500 to 2500 nM,50 to 500 nM,500 to 2500 nM,–,–,–,–,–,–
CCc1cc(Nc2ncc(Br)c(Nc3ccc4nccnc4c3N(C)S(=O)(=O)C(F)(F)F)n2)c(OC)cc1N1CCC(N(C)C)CC1 [Compound I-127],50 to 500 nM,50 to 500 nM,500 to 2500 nM,≤ 50 nM,50 to 500 nM,500 to 2500 nM,–,–,–,–,–,–
CCc1cc(Nc2ncc(Br)c(Nc3ccc4nccnc4c3N(CC)S(C)(=O)=O)n2)c(OC(F)(F)F)cc1N1CCC(N2CCN(C)CC2)CC1 [Compound I-96],50 to 500 nM,≤ 50 nM,50 to 500 nM,≤ 50 nM,50 to 500 nM,50 to 500 nM,–,–,–,–,–,–
CCc1cc(Nc2ncc(Br)c(Nc3ccc4nccnc4c3N(C3CC3)S(C)(=O)=O)n2)c(OC)cc1N1CCC(N(C)C)C1 (stereo not drawn) [Compound I-158],≤ 50 nM,≤ 50 nM,50 to 500 nM,≤ 50 nM,≤ 50 nM,50 to 500 nM,–,–,–,–,–,–
CC1CN(C)CCc2ccc(Nc3ncc(Br)c(Nc4ccc5nccnc5c4N(C)S(C)(=O)=O)n3)cc21 (stereo not drawn) [Compound I-93],≤ 50 nM,≤ 50 nM,≤ 50 nM,≤ 50 nM,≤ 50 nM,≤ 50 nM,–,–,–,–,–,–
COc1cc(N2CCC(N3CCN(C)CC3)CC2)ccc1Nc1ncc([N+](=O)[O-])c(Nc2ccc3nccnc3c2N(C)S(C)(=O)=O)n1 [Compound I-30],500 to 2500 nM,500 to 2500 nM,500 to 2500 nM,50 to 500 nM,50 to 500 nM,500 to 2500 nM,–,–,–,–,–,–

# Source: patent publication US20230310428A1, “EGFR INHIBITOR AND PREPARATION METHOD AND USE THEREOF” (HONGYUN BIOTECH CO., LTD., priority 2020, published 2023)
